Entries after “also recorded” stand apart in the source; their conditions may differ.
Legend:
Type in all cases: biochemical
[1] = tested on: horse heart myoglobin, bovine serum γ-globulin, bovine serum albumin, human serum albumin, egg white lysozyme, egg white ovalbumin, bovine pancreas insulin; assay: Reaction with control proteins (not amyloidogenic); details: each protein 2-7 μM, cleavage agent 5.0 μM, pH 7.50, 37° C., 36 hours
scrambled Aβ42 = assay: Reaction with control peptides: scrambled Aβ42; details: scrambled Aβ42 4.0 μM, cleavage agent 3.0 μM, pH 7.50, 37° C., 36 hours
Description: The following control experiment was performed on cleavage agent A. The peptides or proteins used in the control experiment are not amyloidogenic. […] Two kinds of scrambled Aβ42, having the same 42 amino acids as Aβ42 in a scrambled sequence ([…], […]) (4.0 μM), were not cleaved by incubation with cleavage agent A (3.0 μM) at pH 7.50 and 37° C. for 36 hours.

[2] = molecular target: T1, amylin (Am; human islet amyloid polypeptide) (Homo sapiens, UniProt P10997); assay: Cleavage of oligomers of amylin by cleavage agent (MALDI-TOF MS, cleavage yield); details: for cleavage of Am (MALDI-TOF mass spectrum of HPLC-purified products) / cleavage products of Am (MALDI-TOF MS): cleavage agent 0.38-7.1 μM (figure legends), pH 7.50, 36 hours
T1 construct: Am is a cyclic oligopeptide consisting of 37 amino acid residues
T1 sequence (P10997 34-70 limits assumed): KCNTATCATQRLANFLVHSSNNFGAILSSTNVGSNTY
Description: (§1) The activity of each cleavage agent was tested at 37° C. and pH 7.50 (0.050 M phosphoric acid) in Eppendorf tubes unless indicated otherwise in the Examples.
MALDI-TOF mass spectrum of the products purified with HPLC after incubating Am (4.0 μM) with cleavage agent A is illustrated in FIG. 12. In this Example and hereafter, MALDI-TOF mass spectra of cleavage products for Am were taken after purification with HPLC by the method described below.
Unless specifically described in the Examples, cleavage reaction of Am was initiated by adding Am to the solution containing the cleavage agent, and the cleavage yield was estimated through the following process. The product solution obtained from the cleavage reaction was passed through the membrane (cut-off MW=10000) to remove Am aggregates, and then the cleavage product was separated by HPLC. The total amount of the cleavage product was quantified. The cleavage product was converted to amino acids by alkaline hydrolysis, and the total amount of amino acids was estimated by using fluorescamine to determine the amount of the cleavage product. The cleavage yield was calculated by comparing the amount of cleavage product with that of the initial amount of Am.
The cleavage yields measured after reacting Am (4.0 μM) with various concentrations of cleavage agent A at 37° C. and pH 7.50 for 36 hours are illustrated in FIG. 13. The cleavage yields of Am in the Examples are the mean value measured by using 4[…]6 different reaction mixtures. The relative standard deviation of each cleavage yield is 5-15%.

Aβ40 = Aβ40 (Homo sapiens, UniProt P05067); assay: Cleavage of oligomers of Aβ40 by cleavage agent (MALDI-TOF MS, cleavage yield); details: for cleavage of Aβ40 (MALDI-TOF mass spectrum): pH 7.50, 36 hours
Aβ40, sequence (P05067 672-711 limits assumed): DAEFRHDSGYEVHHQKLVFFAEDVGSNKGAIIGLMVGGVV
Description: as §1
(§2) To generate the monomeric form of Aβ40 or Aβ42 in the early reaction stage, Aβ40 or Aβ42 was treated with NaOH prior to exposure to the pH 7.50 reaction medium (Fezoui, Y.; Hartley, D. M.; Harper, J. D.; Khurana, R.; Walsh, D. M.; Condron, M. M.; Selkoe, D. J.; Lansbury, P. T. Jr.; Fink, A. L.; Teplow, D. B. Amyloid 2000, 7, 166-178). The results for measurement of the fraction of Aβ40 (◯) or Aβ42 ([…]) (initial concentration: 4.0 μM) passing the membrane with cut-off MW of 10000 after incubation at pH 7.50 and 37° C. for various periods of self-assembly are illustrated in FIG. 5. According to the results, most (>80%) of Aβ42 (MW 4514) passes the filter immediately after exposure to the pH 7.50 medium. During the filtration through the membrane which takes about 10 minutes, large oligomers which cannot pass the membrane may have been generated. Therefore, it appears that most of the Aβ42 passed the membrane.
(§3) Unless specifically described in the Examples, cleavage reaction was initiated by adding Aβ40 or Aβ42 to the solution containing the cleavage agent, and the cleavage yield was estimated through the following process.
(§4) A product solution formed by the cleavage reaction was passed through the membrane with a cut-off MW of 10000 to remove aggregates of Aβ40 or Aβ42. Thereafter, the cleavage products were separated by HPLC, and the total amount of the cleavage products was estimated. The cleavage product was degraded to amino acids by alkaline hydrolysis, and then, the total amount of amino acids was estimated with fluorescamine to determine the total amount of the cleavage product. The cleavage yield was calculated by comparing the amount of the cleavage product with the initially added amount of the Aβ40 or Aβ42.
(§5) The cleavage yield measured by incubating Aβ40 or Aβ42 (4.0 μM) with various concentrations of cleavage agent A at pH 7.50 and 37° C. for 36 hours is illustrated in FIG. 8. The cleavage yields of Aβ40 or Aβ42 in the Examples are the mean value measured by using 4˜6 different reaction mixtures. The relative standard deviation (% RSD) of each cleavage yield is 5-15%.

Aβ42 = Aβ42 (Homo sapiens, UniProt P05067); assay: Cleavage of oligomers of Aβ42 by cleavage agent (MALDI-TOF MS, cleavage yield); details: for cleavage of Aβ42 (MALDI-TOF mass spectrum): cleavage agent 0.50-1.0 μM, pH 7.50, 36 hours
Aβ42, sequence (P05067 672-713 limits assumed): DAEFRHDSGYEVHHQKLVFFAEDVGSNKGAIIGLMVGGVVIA
Description: as §1, §2, §3, §4, §5

α-synuclein (Syn) = molecular target: T2, α-synuclein (Syn) (Homo sapiens, UniProt P37840, M5L); assay: Cleavage of oligomer of α-synuclein by cleavage agent (cleavage yield); details: Syn 70 μM, pH 7.50, 37° C.; for cleavage yields of Syn: various concentrations of cleavage agent, 3 days
T2 construct: α-synuclein (Syn) is a protein consisting of 140 amino acids; histidine tag (LEHHHHHH) (C); made in house
Description: as §1
In the Examples, the slightly modified derivatives of α-synuclein (Syn) were used as a substrate to obtain α-synuclein (Syn) by gene recombination. To facilitate purification by the nickel chelate method, histidine tag (LEHHHHHH) was adhered to C-terminus. To avoid interference in the transcription, leucine instead of methionine was incorporated as the 5th amino acid residue.
Unless the context clearly indicates otherwise, Syn cleavage was initiated by adding Syn to the solution of the cleavage agent. The cleavage yield was calculated according to the following method.
A product solution formed by the cleavage reaction was passed through the membrane with the cut-off MW of 10000 to remove Syn and its assemblies. Then, the cleavage products were separated by HPLC, and the total amount of the cleavage products was estimated. The cleavage product was degraded to amino acids through alkaline hydrolysis. The total amount of the amino acids was then estimated with fluorescamine to quantify the total amount of the cleavage product. The cleavage yield was calculated by comparing the amount of the cleavage product with the initially added amount of Syn.
The cleavage yields measured by incubating Syn (70 μM) with various concentrations of cleavage agent A at pH 7.50 and 37° C. for 3 days are illustrated in FIG. 15. The cleavage yields in the Examples are the mean value measured by using 4˜6 different reaction solutions. Since the MW of Syn used in the Examples is about 15000, some of the protein fragments formed by the cleavage of Syn might have been too large to pass through the membrane with cut-off MW of 10000.

[3] = Aβ42 4.0 μM, pH 7.50, 37° C., 36 hours
[4] = Aβ40 4.0 μM, cleavage agent 3.0 μM, 37° C.
[5] = Am 4.0 μM, cleavage agent 1.0 μM, 36 hours, 37° C., pH 7.50
[6] = concluded from preincubation and filtration experiments
[7] = Aβ40 4.0 μM, cleavage agent 3.0 μM, 36 hours, 37° C., pH 7.50
[8] = Aβ42 4.0 μM, cleavage agent 3.0 μM, 36 hours, 37° C., pH 7.50

| Compound | cleavage of non-amyloidogenic control proteins [1] | cleavage of two kinds of scrambled Aβ42 (control) (scrambled Aβ42) | cleavage of Am (MALDI-TOF mass spectrum of HPLC-purified products) ([2]; Am 4.0 μM, 37° C.) | cleavage products of Am (MALDI-TOF MS) ([2]; Am 4.0 μM, 37° C.) | cleavage of Aβ42 (MALDI-TOF mass spectrum) (Aβ42; Aβ42 4.0 μM, 37° C.) | concentration of cleavage agent at which cleavage reaction was detected (Aβ42; [3]) [nM] | plateau value of the yield for cleavage of Aβ42 at high concentration of the cleavage agent (Aβ42; [3]) | cleavage of Aβ40 (MALDI-TOF mass spectrum) (Aβ40; [4]) | cleavage yields of Syn (α-synuclein (Syn)) | other results |
| --- | --- | --- | --- | --- | --- | --- | --- | --- | --- | --- |
| CC(C)CC(Nc1nc(OCCN(C)c2ccc(-c3nc4ccccc4s3)cc2)nc(N2CCCCC2)n1)C(=O)NCCCN1CCNCCNCCNCC1.O.O.[Co+3] (centres unmarked) [cleavage agent F] | the same as those obtained in Example 1 | the same as those obtained in Example 1 | cleaved | Am19-37 and Am17-37; also recorded: Am20-37, Am17-37 and Am14-37 |  |  |  |  |  |  |
| Cc1ccccc1CNc1nc(NCCC(=O)NCCCN2CCNCCNCCNCC2)nc(OCCN(C)c2ccc(-c3nc4ccccc4s3)cc2)n1.O.O.[Co+3] [cleavage agent D] | the same as those obtained in Example 1 | the same as those obtained in Example 1 | cleaved | Am20-37 and Am19-37 | cleaved | 50 to 100 | about 12% |  |  | cleavage of Aβ40 (MALDI-TOF MS data) (Aβ40; Aβ40 4.0 μM, cleavage agent 0.1-10 μM, pH 7.50, 37° C., 36 hours): did not reveal any evidence of cleavage |
| CCCCNc1nc(NCCCN2CCNCCNCCNCC2)nc(OCCN(C)c2ccc(-c3nc4ccccc4s3)cc2)n1.O.O.[Co+3] [cleavage agent E] | the same as those obtained in Example 1 | the same as those obtained in Example 1 | cleaved | Am17-37, Am16-37 and Am13-37 |  |  |  |  |  |  |
| CC(Nc1nc(NCc2ccc(Cl)cc2)nc(OCCN(C)c2ccc(-c3nc4ccccc4s3)cc2)n1)C(=O)NCCCN1CCNCCNCCNCC1.O.O.[Co+3] (centres unmarked) [cleavage agent B] | the same as those obtained in Example 1 | the same as those obtained in Example 1 | cleaved | Am20-37, Am19-37 and Am17-37 | cleaved | 30 to 50 | ~17% | cleaved | fairly large | plateau value of the yield for cleavage of Aβ40 at high concentration of the cleavage agent (Aβ40; Aβ40 4.0 μM, pH 7.50, 37° C., 36 hours): about 12%; cleavage yield against reaction time ([2]; Am 4.0 μM, cleavage agent 1.0 μM, 37° C., pH 7.50): does not increase even if the reaction period is increase beyond 36 hours; amounts of cleavage products after preincubation of Am for 6 hours compared with no preincubation [2, 5]: not much smaller; cleavage of Am after preincubation of Am for 36 hours or longer [2, 5]: little cleavage reaction occurred; assembly species of Am cleaved (selectivity) [2, 6]: oligomers of Am instead of the monomer, protofibrils, and fibrils of Am are cleaved |
| CCCCNc1nc(NCCCN2CCNCCNCCNCC2)nc(NCc2ccc(-c3nc4ccccc4o3)cc2)n1.O.O.[Co+3] [cleavage agent A] | cleavage reaction was not detected | not cleaved | cleaved | Am20-37 and Am19-37 | cleaved | 100 | about 30% | cleaved | fairly large | cleavage of Aβ40 after preincubation of Aβ40 for 24 hours (Aβ40; [7]): considerable peptide cleavage; effect of preincubation of Aβ40 for periods longer than 24 hours on cleavage yield (Aβ40; [7]): reduces the cleavage yield; yield for cleavage of Aβ40 after preincubation for 3-18 hours (Aβ40; [7]): does not decrease considerably; assembly species of Aβ40 cleaved (selectivity) (Aβ40; [6]): protofibrils or fibrils of Aβ40 are not cleaved; cleavage of Aβ42 after preincubation of Aβ42 for 24 hours (Aβ42; [8]): little cleavage was observed; cleavage yield after preincubation of Aβ42 for 3-6 hours compared with no preincubation (Aβ42; [8]): not much smaller; assembly species of Aβ42 cleaved (selectivity) (Aβ42; [6]): the oligomer is cleaved by the cleavage agent A and not the Aβ42 monomer, protofibril, or fibril |
| Co^III complex of cyclen [reference compound] |  |  |  |  |  |  |  |  |  | cleavage of Aβ40 by complex lacking the recognition site (Aβ40; complex 20 μM, Aβ40 4.0 μM, pH 7.50, 37° C., 36 hours): No peptide cleavage was observed; cleavage of Aβ42 by complex lacking the recognition site (Aβ42; complex 20 μM, Aβ42 4.0 μM, pH 7.50, 37° C., 36 hours): No peptide cleavage was observed; cleavage of Syn by complex lacking the recognition site (α-synuclein (Syn); complex 20 μM, 36 hours): No peptide cleavage was observed; cleavage of Am by complex lacking the recognition site ([2]; complex 20 μM, Am 4.0 μM, pH 7.50, 37° C., 36 hours): No peptide cleavage was observed |
